Measurements reported in PubChem BioAssay AID2060883 (Molecular Pharmacology Branch, DTP, NCI, 2025).
Several values for one entry are separate records, joined by “and”; a condition that tells them apart may be missing. Equal entries are not always repeated. Values belong to the compound of their own block, whether it stands above or below them.

System: 843782-103-R-J1-PDC complex spheroid viability
Assay: Anticancer human tumor 843782-103-R-J1-PDC patient-derived lung adenocarcinoma cell line growth inhibition [RAS]
Conditions: for viability, T/C: stronger effect = lower value
Summary of the method: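 Multi-cell-type spheroids: tumor cells plus HUVEC endothelial cells and mesenchymal stem cells. RAS-pathway inhibitors were combined with targeted agents, each dosed in half-log steps down from clinical Cmax, or from 10 microM when Cmax was unknown.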
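Further: viability read after seven days of compound exposure.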

- IC50 (curve of first compound, second compound 0.000949 µM): 1.49 nM
- IC50 (curve of first compound, second compound 0.003 µM): 0.963 nM
- IC50 (curve of first compound, second compound 0.00949 µM): < 0.949 nM
- IC50 (curve of first compound, second compound 0.03 µM): < 0.949 nM
- IC50 (curve of first compound, second compound 0.0949 µM): < 0.949 nM
- IC50 (curve of first compound, second compound 0.3 µM): < 0.949 nM
SMILES: CCc1c2c(nc3ccc(O)cc13)-c1cc3c(c(=O)n1C2)COC(=O)[C@]3(O)CC + CCn1c(-c2cc(N3CCN(C)CC3)cnc2C(C)OC)c2c3cc(ccc31)-c1csc(n1)CC(NC(=O)C1CC1C)C(=O)N1CCCC(N1)C(=O)OCC(C)(C)C2
- viability, T/C (second compound 0.000949 µM, first compound 0.000949 µM): 68.4%
- viability, T/C (second compound 0.000949 µM, first compound 0.003 µM): 21.8%
- viability, T/C (second compound 0.000949 µM, first compound 0.00949 µM): 4.84%
- viability, T/C (second compound 0.000949 µM, first compound 0.03 µM): 2.16%
- viability, T/C (second compound 0.000949 µM, first compound 0.0949 µM): 1.13%
- viability, T/C (second compound 0.000949 µM, first compound 0.3 µM): 0.96%
- viability, T/C (second compound 0.003 µM, first compound 0.000949 µM): 50.8%
- viability, T/C (second compound 0.003 µM, first compound 0.003 µM): 20.9%
- viability, T/C (second compound 0.003 µM, first compound 0.00949 µM): 5.17%
- viability, T/C (second compound 0.003 µM, first compound 0.03 µM): 1.82%
- viability, T/C (second compound 0.003 µM, first compound 0.0949 µM): 1.45%
- viability, T/C (second compound 0.003 µM, first compound 0.3 µM): 1.05%
- viability, T/C (second compound 0.00949 µM, first compound 0.000949 µM): 38%
- viability, T/C (second compound 0.00949 µM, first compound 0.003 µM): 17.9%
- viability, T/C (second compound 0.00949 µM, first compound 0.00949 µM): 5.27%
- viability, T/C (second compound 0.00949 µM, first compound 0.03 µM): 2.03%
- viability, T/C (second compound 0.00949 µM, first compound 0.0949 µM): 2.15%
- viability, T/C (second compound 0.00949 µM, first compound 0.3 µM): 0.92%
- viability, T/C (second compound 0.03 µM, first compound 0.000949 µM): 18.9%
- viability, T/C (second compound 0.03 µM, first compound 0.003 µM): 15.3%
- viability, T/C (second compound 0.03 µM, first compound 0.00949 µM): 5.86%
- viability, T/C (second compound 0.03 µM, first compound 0.03 µM): 2.53%
- viability, T/C (second compound 0.03 µM, first compound 0.0949 µM): 1.38%
- viability, T/C (second compound 0.03 µM, first compound 0.3 µM): 0.97%
- viability, T/C (second compound 0.0949 µM, first compound 0.000949 µM): 14.2%
- viability, T/C (second compound 0.0949 µM, first compound 0.003 µM): 13.4%
- viability, T/C (second compound 0.0949 µM, first compound 0.00949 µM): 5.71%
- viability, T/C (second compound 0.0949 µM, first compound 0.03 µM): 2.6%
- viability, T/C (second compound 0.0949 µM, first compound 0.0949 µM): 1.4%
- viability, T/C (second compound 0.0949 µM, first compound 0.3 µM): 1.46%
- viability, T/C (second compound 0.3 µM, first compound 0.000949 µM): 13.5%
- viability, T/C (second compound 0.3 µM, first compound 0.003 µM): 11.7%
- viability, T/C (second compound 0.3 µM, first compound 0.00949 µM): 5.29%
- viability, T/C (second compound 0.3 µM, first compound 0.03 µM): 2.41%
- viability, T/C (second compound 0.3 µM, first compound 0.0949 µM): 1.96%
- viability, T/C (second compound 0.3 µM, first compound 0.3 µM): 0.79%

- IC50 (compound alone, run of 09/09/2024): > 1000 nM
- IC50 (curve of compound): > 1000 nM
SMILES: C=CC(=O)N1CCN(c2nc(OCC3CCCN3C)nc3c(F)c(-c4nc(N)cc(C)c4C(F)(F)F)c(Cl)cc23)C(C)C1 (configuration not stated)
- viability, T/C (compound 0.00316 µM): 89.6% [middle of 12 runs]
- viability, T/C (compound 0.0316 µM): 86.8% [middle of 12 runs]
- viability, T/C (compound 0.316 µM): 85.5% [middle of 12 runs]
- viability, T/C (compound 1 µM): 86% [middle of 12 runs]

- IC50 (curve of compound): > 1000 nM
SMILES: C=CC(=O)Nc1cc(Nc2nccc(-c3cn(C)c4ccccc34)n2)c(OC)cc1N(C)CCN(C)C
- viability, T/C (compound 0.00316 µM): 101% [middle of 4 runs]
- viability, T/C (compound 0.01 µM): 99.7% [middle of 4 runs]
- viability, T/C (compound 0.0316 µM): 95.9% [middle of 4 runs]
- viability, T/C (compound 0.1 µM): 102% (2×) and 84% and 95.2%
- viability, T/C (compound 0.316 µM): 91.4% [middle of 4 runs]
- viability, T/C (compound 1 µM): 68% [middle of 4 runs]

- IC50 (compound alone, run of 08/26/2024): 5.72 nM [middle of 8 runs]
SMILES: CCn1c(-c2cc(N3CCN(C)CC3)cnc2C(C)OC)c2c3cc(ccc31)-c1csc(n1)CC(NC(=O)C1CC1C)C(=O)N1CCCC(N1)C(=O)OCC(C)(C)C2 (configuration not stated)
- viability, T/C (compound 0.000949 µM): 85.8% [middle of 8 runs]
- viability, T/C (compound 0.003 µM): 65.7% [middle of 8 runs]
- viability, T/C (compound 0.00949 µM): 37.1% [middle of 8 runs]
- viability, T/C (compound 0.03 µM): 22.4% [middle of 8 runs]
- viability, T/C (compound 0.0949 µM): 17.1% [middle of 8 runs]
- viability, T/C (compound 0.3 µM): 14.2% [middle of 8 runs]
